From article PMC11157491, “Novel Alaninamide Derivatives with Drug-like Potential for Development as Antiseizure and Antinociceptive Therapies—In Vitro and In Vivo Characterization” (ACS Chemical Neuroscience, 2024)

Columns and labels:
[1] = tested on: glutamate and GABA concentrations in the hippocampus and cortex; test: Glutamate and GABA concentrations in hippocampus and cortex of PTZ-kindled mice (LC-MS/MS); assay type: in vivo
Description: After completion of behavioral tests, animals were sacrificed and the brains were collected for the analysis of glutamate and GABA concentrations in the hippocampus and cortex. No changes in glutamate and GABA concentrations were reported in the hippocampus (Figure 4A). However, statistically significant differences in the concentration of both glutamate and GABA (Figure 4B) were found in the cortex. The FST procedure increased cortical glutamate concentrations in this brain structure as compared to naive mice (p < 0.05), whereas PTZ-induced kindling caused a ∼30% decrease in glutamate concentrations in comparison to the nonkindled control group exposed to the FST test (p < 0.0001).
Concentrations of GABA and glutamate in the mouse prefrontal cortex and hippocampus were measured by the liquid chromatography-tandem mass spectrometry (LC-MS/MS) method. Standards of both analytes were purchased from Toronto Research Chemicals Inc. (Toronto, ON, Canada). The stock standard solutions of GABA and glutamate were prepared in methanol and deionized water, respectively, and stored at 4 °C. A series of solution mixtures of desired concentrations were prepared by suitable dilutions of the stock solutions. Before analysis, murine brains were homogenized in distilled water at the ratio of 50 μL/mg using a handheld pestle and a glass tube homogenizer (Potter–Elvehjem PTFE pestle and glass tube, Sigma-Aldrich). Homogenates were centrifuged at 8000g for 10 min at 4 °C, and the supernatant was diluted 10 times with 0.1% formic acid in MeCN. After addition of isotope-labeled GABA-d6 and glutamate-d5 (Toronto Research Chemicals Inc., Toronto, ON, Canada) as internal standards (10 μL at a concentration of 500 ng/mL), samples (10 μL) were deproteinized with 80 μL of 0.1% formic acid in MeCN by shaking for 10 min (IKA Vibrax VXR, Germany) and then centrifuged for 5 min at a speed of 8000g (Eppendorf miniSpin centrifuge). The obtained supernatants were transferred into the autosampler vials. Chromatographic separation was carried out on an XBridge HILIC analytical column (2.1 × 150 mm^2, 3.5 μm, Waters, Ireland) with the oven temperature set at 25 °C using the Excion LC AC HPLC system. The autosampler temperature was maintained at 15 °C, and a sample volume of 2 μL was injected into the LC-MS/MS system. […] The tandem mass spectrometer was operated at unit resolution in the selected reaction monitoring mode (SRM), monitoring the transition of the protonated molecular ions m/z 104–87 and m/z 104–69 for GABA and m/z 148–84 and m/z 148–102 for glutamate (the first pair was used as a quantifier and the second for the identity verification—qualifier). For isotope-labeled GABA-d6 and glutamate-d5 monitored pairs were m/z 110–93 and m/z 153–88, respectively. […]

mice [2] = test: Spontaneous locomotor activity; assay type: in vivo; conditions: all tested doses, i.p. 30 min before
Procedure: We aimed to test the influence of the test compound on spontaneous locomotor activity to investigate its sedative properties. The strong sedative activity of new compounds is considered an undesirable property, which may lead to an incorrect or ambiguous interpretation of the in vivo results.
Figure S3. […] The test compound or […]
vehicle (1% Tween 80 solution) were administered 30 min i.p. before the 30-min long evaluation of locomotor activity. The results are presented as bar plots showing the mean ± SEM. The statistical significance was evaluated by one-way ANOVA followed by Dunnett’s post hoc test: * p < 0.05, *** p < 0.001, n = 8–10 mice per […]
(1 picture or pasted object on this page, not shown here)

GABAA ion channel = GABAA ion channel [3H]GABA binding (agonist radioligand); conditions: 100 μM, rat hippocampus
Procedure: Binding/functional studies were carried out commercially in Eurofins Laboratories (Poitiers, France) and Eurofins Panlabs Discovery Services Taiwan, Ltd. (New Taipei City, Taiwan) using testing procedures that were reported previously (for details, see Table S2).
Table S2. Radioligand binding and functional assays. […]
GABAA ion channel [3H]GABA (agonist radioligand)
Potassium channel (hERG) […]
Assays were performed commercially in Eurofins Laboratories ( Poitiers, France) or Eurofins Panlabs Discovery Services
Taiwan, Ltd. (New Taipei City, Taiwan).

mice [3] = test: Capsaicin-induced pain; assay type: in vivo; conditions: Mus musculus, ip, 30 min before capsaicin
Procedure: The experimental groups consisted of 10 adult male Albino Swiss mice (CD-1, 18–25 g). Each animal was tested only once. Immediately after the assay, the animals were sacrificed by cervical dislocation. Behavioral measurements were observed by trained observers. The in vivo antinociceptive assays were in accordance with Polish regulations and the European Union Directive of 22 Sept 2010 (2010/63/EU). All procedures were carried out according to the rules of the International Council on Laboratory Animal Science (ICLAS) and were approved by the Local Ethics Committee in Cracow, Poland (104/2015, 279/2019, and 614/2022). The tested substances were suspended in a 1% aqueous solution of Tween 80 and were injected i.p. 30 min prior to the test. […] The in vivo procedure for the model of capsaicin-induced nociception was previously reported;[67] the animals were pretreated with vehicle (10 mL/kg, negative control), and the dose–response of investigated compounds was evaluated at 12.5, 25, and 50 mg/kg.
Data are presented as means ± standard error of the mean (SEM). […] Statistically significant differences between groups were calculated using one-way analysis of variance (ANOVA) and the post hoc Dunnett’s multiple comparison test or two-way analysis of variance (ANOVA). […]

- spontaneous locomotor activity (mice [2]): decreased spontaneous locomotor activity
- % inhibition of control specific binding (GABAA ion channel): 10.0%
SMILES: CC(=O)NC(C)C(=O)N1CCN(c2cccc(OC(F)(F)F)c2)CC1 (centres unmarked) [Compound 28, N-(1-oxo-1-(4-(3-(Trifluoromethoxy)phenyl)piperazin-1-yl)propan-2-yl)acetamide]
- GABA concentrations in the cortex ([1]; PTZ-kindled animals vs PTZ-kindled control): did not affect GABA concentrations
- cortical glutamate concentration (PTZ-kindling-induced decrease) ([1]; cortex, 28 at 40 mg/kg, VPA 150 mg/kg): reversed this effect
- ED50 (mice [3]): 27.5 mg/kg
